Measurements from ChEMBL document CHEMBL5696443 (Clin Cancer Res, 2016).
Active and inactive are the calls of the source. The calls are words filed in the database; no cut-off is given here.

Columns and labels:
[1] = target: Mitogen-activated protein kinase 11 (Homo sapiens) (UniProt Q15759); test: Inhibition of human MAPK11 at 1 uM using MBP as substrate in presence of [gamma33P]-ATP by HotSpot assay relative to control
[2] = target: Protein kinase C zeta type (Homo sapiens) (UniProt Q05513); test: Inhibition of human PRKCZ at 1 uM using ERMRPRKRQGSVRRRV as substrate in presence of [gamma33P]-ATP by HotSpot assay relative to control
[3] = target: Calcium/calmodulin-dependent protein kinase kinase 1 (Homo sapiens) (UniProt Q8N5S9); test: Inhibition of human CAMKK1 at 1 uM using MBP as substrate in presence of [gamma33P]-ATP by HotSpot assay relative to control
[4] = target: Serine/threonine-protein kinase Nek1 (Homo sapiens) (UniProt Q96PY6); test: Inhibition of human NEK1 at 1 uM using MBP as substrate in presence of [gamma33P]-ATP by HotSpot assay relative to control
[5] = target: Mitogen-activated protein kinase kinase kinase kinase 4 (Homo sapiens) (UniProt O95819); test: Inhibition of human MAP4K4 at 1 uM using MBP as substrate in presence of [gamma33P]-ATP by HotSpot assay relative to control
[6] = system: EML4-ALK (Homo sapiens), Q9UM73+Q9HC35 [E1210K]; conditions: BaF3, dose 200.0 nmol/L, time 3-5 weeks
[7] = target: Serine/threonine-protein kinase Chk1 (Homo sapiens, UniProt O14757); test: Inhibition of human CHEK1 using KKKVSRSGLYRSPSMPENLNRPR as substrate in presence of [gamma33P]-ATP by HotSpot assay
[8] = target: Serine/threonine-protein kinase NLK (Homo sapiens) (UniProt Q9UBE8); test: Inhibition of human NLK at 1 uM using MBP as substrate in presence of [gamma33P]-ATP by HotSpot assay relative to control
[9] = target: MAP/microtubule affinity-regulating kinase 3 (Homo sapiens, UniProt P27448); test: Inhibition of human MARK3 using KKKVSRSGLYRSPSMPENLNRPR as substrate in presence of [gamma33P]-ATP by HotSpot assay
[10] = target: Mitogen-activated protein kinase 9 (Homo sapiens) (UniProt P45984); test: Inhibition of human JNK2a2 at 1 uM using ATF2 as substrate in presence of [gamma33P]-ATP by HotSpot assay relative to control
[11] = target: MAP kinase-activated protein kinase 3 (Homo sapiens) (UniProt Q16644); test: Inhibition of human MAPKAPK3 at 1 uM using KKLNRTLSVA as substrate in presence of [gamma33P]-ATP by HotSpot assay relative to control
[12] = target: Dual specificity mitogen-activated protein kinase kinase 2 (Homo sapiens) (UniProt P36507); test: Inhibition of human MAP2K2 at 1 uM using ERK2 as substrate in presence of [gamma33P]-ATP by HotSpot assay relative to control
[13] = system: BaF3; test: In vivo inhibition of ALK signaling in mouse implanted with mouse BaF3 cells expressing EML4-ALK G1202R mutant assessed as inhibition of ALK phosphorylation at 25 mg/kg, po administered as single dose and measured at 6 to 24 hrs by ELISA; format: functional, organism-based; conditions: time 6-24 hrs
[14] = target: Angiopoietin-1 receptor (Homo sapiens, UniProt Q02763); test: Inhibition of human TEK using poly (Glu, Tyr)4:1 as substrate in presence of [gamma33P]-ATP by HotSpot assay
[15] = target: Serine/threonine-protein kinase Nek9 (Homo sapiens, UniProt Q8TD19); test: Inhibition of human NEK9 using MBP as substrate in presence of [gamma33P]-ATP by HotSpot assay
[16] = Average plasma concentration in CB-17/SCID mouse implanted with mouse BaF3 cells expressing EML4-ALK G1202R mutant at 25 mg/kg, po administered once daily for 7 days by LC-MS/MS analysis; format: ADME, organism-based; conditions: in vivo, 168 h, time 7 day
[17] = target: MAP kinase-activated protein kinase 5 (Homo sapiens) (UniProt Q8IW41); test: Inhibition of human MAPKAPK5 at 1 uM using KKLNRTLSVA as substrate in presence of [gamma33P]-ATP by HotSpot assay relative to control
[18] = system: EML4-ALK (Homo sapiens), Q9UM73+Q9HC35 [L1152R]; conditions: BaF3, time 3-5 weeks
[19] = target: Cyclin-dependent kinase 1/cyclin B1 (Homo sapiens) (UniProt P06493+P14635); test: Inhibition of human CDK1/CyclinB at 1 uM using RB protein as substrate in presence of [gamma33P]-ATP by HotSpot assay relative to control; format: protein-complex assay
[20] = target: RAC-beta serine/threonine-protein kinase (Homo sapiens) (UniProt P31751); test: Inhibition of human AKT2 at 1 uM using KGSGSGRPRTSSFAEG as substrate in presence of [gamma33P]-ATP by HotSpot assay relative to control
[21] = system: EML4-ALK (Homo sapiens), Q9UM73+Q9HC35 [F1174C]; conditions: BaF3, dose 200.0 nmol/L, time 3-5 weeks
[22] = target: Casein kinase I isoform gamma-2 (Homo sapiens) (UniProt P78368); test: Inhibition of human CSNK1G2 at 1 uM using KRRRAL[pS]VASLPGL as substrate in presence of [gamma33P]-ATP by HotSpot assay relative to control
[23] = target: Tyrosine-protein kinase Mer (Homo sapiens, UniProt Q12866); test: Inhibition of human MERTK using poly (Glu, Tyr)4:1 as substrate in presence of [gamma33P]-ATP by HotSpot assay
[24] = target: Serine/threonine-protein kinase TBK1 (Homo sapiens) (UniProt Q9UHD2); test: Inhibition of human TBK1 at 1 uM using MBP as substrate in presence of [gamma33P]-ATP by HotSpot assay relative to control
[25] = target: Serine/threonine-protein kinase PAK 5 (Homo sapiens) (UniProt Q9P286); test: Inhibition of human PAK5 at 1 uM using RRRLSFAEPG as substrate in presence of [gamma33P]-ATP by HotSpot assay relative to control
[26] = target: Aurora kinase B (Homo sapiens, UniProt Q96GD4); test: Inhibition of human AURKB using H-LRRASLG as substrate in presence of [gamma33P]-ATP by HotSpot assay
[27] = system: EML4-ALK (Homo sapiens), Q9UM73+Q9HC35 [S1206A]; conditions: BaF3, dose 200.0 nmol/L, time 3-5 weeks
[28] = target: Dual specificity tyrosine-phosphorylation-regulated kinase 4 (Homo sapiens) (UniProt Q9NR20); test: Inhibition of human DYRK4 at 1 uM using RRRFRPASPLRGPPK as substrate in presence of [gamma33P]-ATP by HotSpot assay relative to control

Sequence of Casein kinase I isoform gamma-2 (Homo sapiens) (P78368 whole entry, looked up, canonical isoform): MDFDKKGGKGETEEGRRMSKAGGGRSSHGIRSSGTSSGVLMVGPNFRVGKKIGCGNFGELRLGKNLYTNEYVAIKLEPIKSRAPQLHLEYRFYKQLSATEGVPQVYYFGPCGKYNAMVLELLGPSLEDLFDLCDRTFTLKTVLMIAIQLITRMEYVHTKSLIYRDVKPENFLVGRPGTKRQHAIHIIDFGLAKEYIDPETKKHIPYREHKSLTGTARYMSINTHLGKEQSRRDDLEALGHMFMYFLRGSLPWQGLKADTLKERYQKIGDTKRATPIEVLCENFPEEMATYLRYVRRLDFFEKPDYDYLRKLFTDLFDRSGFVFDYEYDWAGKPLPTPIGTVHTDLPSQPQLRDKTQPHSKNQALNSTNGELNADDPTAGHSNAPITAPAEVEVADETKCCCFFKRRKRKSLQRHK
Sequence of MAP kinase-activated protein kinase 5 (Homo sapiens) (Q8IW41 whole entry): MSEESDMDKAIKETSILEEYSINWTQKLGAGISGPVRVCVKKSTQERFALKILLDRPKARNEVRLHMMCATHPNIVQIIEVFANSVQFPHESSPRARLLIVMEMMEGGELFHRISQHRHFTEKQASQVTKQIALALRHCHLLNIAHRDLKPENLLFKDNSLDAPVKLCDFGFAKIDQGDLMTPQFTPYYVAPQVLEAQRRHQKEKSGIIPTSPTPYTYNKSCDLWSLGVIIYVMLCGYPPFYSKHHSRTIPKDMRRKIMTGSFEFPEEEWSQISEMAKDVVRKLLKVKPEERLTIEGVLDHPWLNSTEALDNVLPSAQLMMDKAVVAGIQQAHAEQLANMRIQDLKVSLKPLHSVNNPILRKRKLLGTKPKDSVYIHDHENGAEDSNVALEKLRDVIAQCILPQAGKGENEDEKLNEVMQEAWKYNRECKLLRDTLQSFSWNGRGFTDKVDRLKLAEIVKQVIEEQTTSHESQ
Sequence of Serine/threonine-protein kinase TBK1 (Homo sapiens) (Q9UHD2 whole entry): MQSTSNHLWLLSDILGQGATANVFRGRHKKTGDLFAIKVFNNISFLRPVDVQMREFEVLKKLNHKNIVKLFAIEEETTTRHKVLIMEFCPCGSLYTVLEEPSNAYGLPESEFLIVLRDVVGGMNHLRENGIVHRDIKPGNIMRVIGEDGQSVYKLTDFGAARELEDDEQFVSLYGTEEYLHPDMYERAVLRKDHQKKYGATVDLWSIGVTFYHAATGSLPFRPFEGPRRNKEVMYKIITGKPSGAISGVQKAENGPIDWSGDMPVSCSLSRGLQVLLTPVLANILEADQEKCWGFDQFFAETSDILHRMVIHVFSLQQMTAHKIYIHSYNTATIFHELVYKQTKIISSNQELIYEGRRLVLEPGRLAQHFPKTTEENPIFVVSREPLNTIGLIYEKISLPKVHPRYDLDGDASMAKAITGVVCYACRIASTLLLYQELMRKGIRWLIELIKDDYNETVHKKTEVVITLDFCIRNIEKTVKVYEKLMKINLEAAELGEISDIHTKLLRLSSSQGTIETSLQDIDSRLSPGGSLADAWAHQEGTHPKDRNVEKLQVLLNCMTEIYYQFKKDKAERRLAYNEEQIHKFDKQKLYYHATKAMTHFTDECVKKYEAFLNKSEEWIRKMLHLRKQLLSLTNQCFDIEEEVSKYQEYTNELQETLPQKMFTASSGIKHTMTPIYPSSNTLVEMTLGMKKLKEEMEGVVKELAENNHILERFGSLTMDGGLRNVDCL
Sequence of Aurora kinase B (Q96GD4 whole entry): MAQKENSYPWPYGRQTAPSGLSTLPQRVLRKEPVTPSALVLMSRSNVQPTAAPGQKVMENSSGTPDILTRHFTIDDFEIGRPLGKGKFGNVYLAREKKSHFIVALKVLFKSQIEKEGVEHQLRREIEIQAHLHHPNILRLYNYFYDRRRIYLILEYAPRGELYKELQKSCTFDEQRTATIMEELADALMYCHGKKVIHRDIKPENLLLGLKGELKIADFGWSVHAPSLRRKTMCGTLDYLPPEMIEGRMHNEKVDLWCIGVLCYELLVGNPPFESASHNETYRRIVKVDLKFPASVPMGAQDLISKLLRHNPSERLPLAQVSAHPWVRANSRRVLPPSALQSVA
Sequence of Protein kinase C zeta type (Homo sapiens) (Q05513 whole entry): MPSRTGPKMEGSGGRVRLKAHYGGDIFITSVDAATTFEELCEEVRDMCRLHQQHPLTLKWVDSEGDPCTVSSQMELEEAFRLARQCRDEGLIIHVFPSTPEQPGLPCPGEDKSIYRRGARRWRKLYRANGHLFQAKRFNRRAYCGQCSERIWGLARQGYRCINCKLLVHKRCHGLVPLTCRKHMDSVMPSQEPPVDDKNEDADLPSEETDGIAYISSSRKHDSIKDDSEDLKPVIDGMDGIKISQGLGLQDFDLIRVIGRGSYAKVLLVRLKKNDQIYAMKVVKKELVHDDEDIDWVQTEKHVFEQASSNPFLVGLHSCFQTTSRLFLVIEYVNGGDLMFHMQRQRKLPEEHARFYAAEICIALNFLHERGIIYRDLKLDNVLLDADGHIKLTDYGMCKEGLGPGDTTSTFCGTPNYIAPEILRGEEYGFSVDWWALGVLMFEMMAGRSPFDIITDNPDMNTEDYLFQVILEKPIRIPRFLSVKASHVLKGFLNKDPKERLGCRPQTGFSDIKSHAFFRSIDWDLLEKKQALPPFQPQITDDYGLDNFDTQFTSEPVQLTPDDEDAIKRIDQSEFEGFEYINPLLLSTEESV
Sequence of Dual specificity mitogen-activated protein kinase kinase 2 (Homo sapiens) (P36507 whole entry): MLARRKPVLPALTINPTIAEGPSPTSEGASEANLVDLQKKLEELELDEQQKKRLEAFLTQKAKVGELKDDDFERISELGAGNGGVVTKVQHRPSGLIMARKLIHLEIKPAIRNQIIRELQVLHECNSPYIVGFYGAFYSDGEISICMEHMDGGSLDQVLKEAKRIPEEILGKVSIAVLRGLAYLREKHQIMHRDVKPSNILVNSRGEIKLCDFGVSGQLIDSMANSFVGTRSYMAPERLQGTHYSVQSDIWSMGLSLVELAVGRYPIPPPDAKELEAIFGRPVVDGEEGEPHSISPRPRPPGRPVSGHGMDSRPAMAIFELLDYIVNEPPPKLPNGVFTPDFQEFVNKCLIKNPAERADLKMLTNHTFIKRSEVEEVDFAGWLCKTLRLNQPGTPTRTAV
Sequence of Cyclin-dependent kinase 1/cyclin B1 (Homo sapiens) (P06493 whole entry, looked up): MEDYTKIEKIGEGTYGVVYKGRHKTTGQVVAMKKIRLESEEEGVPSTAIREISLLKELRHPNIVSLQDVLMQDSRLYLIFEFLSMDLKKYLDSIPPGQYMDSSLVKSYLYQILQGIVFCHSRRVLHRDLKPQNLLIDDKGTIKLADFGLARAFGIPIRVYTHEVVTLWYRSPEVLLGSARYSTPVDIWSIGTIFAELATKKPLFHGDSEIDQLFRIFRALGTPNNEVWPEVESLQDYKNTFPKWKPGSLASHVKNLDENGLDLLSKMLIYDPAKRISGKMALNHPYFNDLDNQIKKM
Sequence of Cyclin-dependent kinase 1/cyclin B1 (Homo sapiens) (P14635 whole entry, looked up): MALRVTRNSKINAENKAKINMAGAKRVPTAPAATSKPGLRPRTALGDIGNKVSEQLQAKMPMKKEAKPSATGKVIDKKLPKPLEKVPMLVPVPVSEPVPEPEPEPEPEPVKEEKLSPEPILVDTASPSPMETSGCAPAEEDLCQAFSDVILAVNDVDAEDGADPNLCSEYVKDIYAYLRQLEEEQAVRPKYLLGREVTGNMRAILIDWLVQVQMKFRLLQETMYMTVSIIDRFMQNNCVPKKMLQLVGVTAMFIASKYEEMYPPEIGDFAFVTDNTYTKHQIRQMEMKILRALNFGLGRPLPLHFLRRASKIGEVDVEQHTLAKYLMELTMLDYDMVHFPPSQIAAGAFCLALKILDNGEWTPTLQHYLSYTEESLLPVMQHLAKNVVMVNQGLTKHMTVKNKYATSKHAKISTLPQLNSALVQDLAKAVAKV
Sequence of Calcium/calmodulin-dependent protein kinase kinase 1 (Homo sapiens) (Q8N5S9 whole entry, looked up): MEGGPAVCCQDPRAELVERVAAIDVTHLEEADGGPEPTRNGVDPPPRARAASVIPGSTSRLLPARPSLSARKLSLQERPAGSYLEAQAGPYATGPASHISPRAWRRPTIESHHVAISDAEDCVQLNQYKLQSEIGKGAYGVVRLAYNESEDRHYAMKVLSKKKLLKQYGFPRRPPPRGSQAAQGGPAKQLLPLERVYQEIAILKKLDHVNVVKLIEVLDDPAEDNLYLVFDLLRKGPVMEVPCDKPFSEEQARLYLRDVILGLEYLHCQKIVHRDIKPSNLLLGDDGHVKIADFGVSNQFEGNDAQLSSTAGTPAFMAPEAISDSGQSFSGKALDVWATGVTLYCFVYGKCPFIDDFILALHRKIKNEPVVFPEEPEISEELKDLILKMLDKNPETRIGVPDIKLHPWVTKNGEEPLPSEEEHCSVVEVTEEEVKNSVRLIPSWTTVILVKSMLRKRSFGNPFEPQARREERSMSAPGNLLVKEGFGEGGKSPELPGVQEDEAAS
Sequence of Mitogen-activated protein kinase 11 (Homo sapiens) (Q15759 whole entry): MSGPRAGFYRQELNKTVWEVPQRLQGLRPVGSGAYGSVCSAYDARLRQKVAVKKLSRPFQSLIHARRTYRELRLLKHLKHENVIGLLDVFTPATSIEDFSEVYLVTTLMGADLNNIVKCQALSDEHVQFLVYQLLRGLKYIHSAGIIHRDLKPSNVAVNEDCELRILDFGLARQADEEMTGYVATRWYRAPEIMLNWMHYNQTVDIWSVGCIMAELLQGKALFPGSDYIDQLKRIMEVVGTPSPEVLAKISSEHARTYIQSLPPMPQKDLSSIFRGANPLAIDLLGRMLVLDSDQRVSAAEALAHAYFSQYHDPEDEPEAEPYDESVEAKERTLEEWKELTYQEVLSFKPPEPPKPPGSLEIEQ
Sequence of MAP kinase-activated protein kinase 3 (Homo sapiens) (Q16644 whole entry, looked up): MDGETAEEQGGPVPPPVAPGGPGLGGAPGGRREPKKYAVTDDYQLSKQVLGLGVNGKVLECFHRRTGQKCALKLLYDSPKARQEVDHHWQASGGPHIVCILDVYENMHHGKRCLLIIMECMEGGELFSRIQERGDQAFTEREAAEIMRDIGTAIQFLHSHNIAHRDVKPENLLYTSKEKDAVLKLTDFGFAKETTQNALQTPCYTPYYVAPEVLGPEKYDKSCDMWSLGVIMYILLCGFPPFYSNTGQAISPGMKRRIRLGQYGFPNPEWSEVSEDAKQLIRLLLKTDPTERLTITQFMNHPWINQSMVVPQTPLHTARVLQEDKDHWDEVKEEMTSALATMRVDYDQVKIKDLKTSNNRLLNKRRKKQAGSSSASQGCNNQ

What does the source list for `COc1cc(N2CCC(N3CCN(C)CC3)CC2)ccc1Nc1ncc(Cl)c(Nc2ccccc2P(C)(C)=O)n1` [BRIGATINIB]?
inhibition [1]: < 90%; inhibition [2]: < 90%; inhibition [3]: < 90%; inhibition [4]: < 90%; inhibition [5]: < 90%; inhibition [6]: inactive; IC50 [7]: 30 nM; inhibition [8]: < 90%; IC50 [9]: 127 nM; inhibition [10]: < 90%; inhibition [11]: < 90%; inhibition [12]: < 90%; inhibition [13]: Active; IC50 [14]: > 1000 nM; IC50 [15]: > 1000 nM; Cave [16]: 2546 nM; inhibition [17]: < 90%; IC90 [18]: 34 nM; inhibition [19]: < 90%; inhibition [20]: < 90%; inhibition [21]: inactive; inhibition [22]: < 90%; IC50 [23]: > 1000 nM; inhibition [24]: < 90%; inhibition [25]: < 90%; IC50 [26]: > 1000 nM; inhibition [27]: inactive; inhibition [28]: < 90%
